Results reported in PubChem BioAssay (NCI).
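All cell lines were grown in 96-well plates and treated with compound for 48 hours. GI50 is the concentration that inhibits growth by half. TGI is the concentration that stops growth completely.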

How the values were obtained:
Assay in all cases: NCI anticancer screen, dose series, 48 h
[1] = tested on: A549 NSCLC
[2] = tested on: MALME-3M melanoma
[3] = tested on: HL-60(TB) leukemia
[4] = tested on: MDA-MB-231 breast
[5] = tested on: SF-268 CNS
[6] = tested on: SF-295 CNS
[7] = tested on: HOP-92 NSCLC
[8] = tested on: SNB-75 CNS
[9] = tested on: 786-0 renal
[10] = tested on: MDA-MB-468 breast
[11] = tested on: HCC-2998 colon
[12] = tested on: IGROV1 ovarian
[13] = tested on: PC-3 prostate
[14] = tested on: A498 renal
[15] = tested on: ACHN renal
[16] = tested on: KM12 colon
[17] = tested on: SW-620 colon
[18] = tested on: MDA-MB-435
[19] = tested on: MOLT-4 leukemia
[20] = tested on: MCF7 breast
[21] = tested on: NCI-H460 lung
[22] = tested on: NCI-H522 lung
[23] = tested on: OVCAR-4 ovarian
[24] = tested on: LOX IMVI melanoma
[25] = tested on: SK-MEL-2 melanoma
[26] = tested on: HCT-116 colon
[27] = tested on: SK-MEL-5 melanoma
[28] = tested on: SN12C renal
[29] = tested on: HCT-15 colon
[30] = tested on: OVCAR-8 ovarian
[31] = tested on: UO-31 renal
[32] = tested on: NCI/ADR-RES ovarian
[33] = tested on: BT-549 breast
[34] = tested on: T-47D breast
[35] = tested on: CCRF-CEM leukemia
[36] = tested on: U251 CNS
[37] = tested on: SK-MEL-28 melanoma
[38] = tested on: NCI-H226 lung
[39] = tested on: UACC-257 melanoma
[40] = tested on: SF-539 CNS
[41] = tested on: K-562 leukemia
[42] = tested on: OVCAR-5 ovarian
[43] = tested on: DU-145 prostate
[44] = tested on: RXF 393 renal
[45] = tested on: SR leukemia
[46] = tested on: HS 578T breast
[47] = tested on: RPMI-8226 leukemia
[48] = tested on: TK-10 renal
[49] = tested on: CAKI-1 renal
[50] = tested on: UACC-62 melanoma
[51] = tested on: SNB-19 CNS
[52] = tested on: HOP-62 NSCLC
[53] = tested on: NCI-H23 lung
[54] = tested on: HT29 colon
[55] = tested on: M14 melanoma
[56] = tested on: EKVX NSCLC
[57] = tested on: COLO 205 colon
[58] = tested on: SK-OV-3 ovarian

C=C(c1ccc(OC)c(N)c1)c1cc(C)nc2ccccc12
GI50 [1]: < 0.01 µM
TGI [1]: > 100 µM
GI50 [2]: < 0.01 µM
TGI [2]: 31.6 µM
GI50 [3]: < 0.01 µM
TGI [3]: < 0.01 µM
GI50 [4]: < 0.01 µM
TGI [4]: < 0.01 µM
GI50 [5]: < 0.01 µM
TGI [5]: 37.4 µM
GI50 [6]: < 0.01 µM
GI50 [7]: 0.18 µM
TGI [7]: 43 µM
GI50 [8]: < 0.01 µM
TGI [8]: 83.7 µM
GI50 [9]: < 0.01 µM
TGI [9]: > 100 µM
GI50 [10]: < 0.01 µM
TGI [10]: 76.3 µM
GI50 [11]: < 0.01 µM
TGI [11]: 0.466 µM
GI50 [12]: < 0.01 µM
TGI [12]: > 100 µM
GI50 [13]: < 0.01 µM
TGI [13]: > 100 µM
GI50 [14]: 36.8 µM
TGI [14]: > 100 µM
GI50 [15]: < 0.01 µM
TGI [15]: 61.9 µM
GI50 [16]: < 0.01 µM
TGI [16]: 11.5 µM
GI50 [17]: < 0.01 µM
TGI [17]: > 100 µM
GI50 [18]: < 0.01 µM
TGI [18]: 0.118 µM
GI50 [19]: < 0.01 µM
TGI [19]: 26.6 µM
GI50 [20]: < 0.01 µM
TGI [20]: > 37.1 µM
GI50 [21]: < 0.01 µM
TGI [21]: > 32 µM
GI50 [22]: < 0.01 µM
TGI [22]: < 0.01 µM
GI50 [23]: 7.41 µM
TGI [23]: > 100 µM
GI50 [24]: < 0.01 µM
TGI [24]: 27.4 µM
GI50 [25]: < 0.01 µM
TGI [25]: < 0.01 µM
GI50 [26]: < 0.01 µM
TGI [26]: > 100 µM
GI50 [27]: < 0.01 µM
TGI [27]: < 0.01 µM
GI50 [28]: < 0.01 µM
TGI [28]: > 44.9 µM
GI50 [29]: < 0.01 µM
GI50 [30]: < 0.01 µM
GI50 [31]: < 0.01 µM
TGI [31]: 64.6 µM
GI50 [32]: < 0.01 µM
TGI [32]: < 0.01 µM
GI50 [33]: < 0.01 µM
GI50 [34]: 12.6 µM
TGI [34]: > 100 µM
GI50 [35]: < 0.01 µM
GI50 [36]: < 0.01 µM
TGI [36]: > 100 µM
GI50 [37]: < 0.01 µM
TGI [37]: 98.2 µM
GI50 [38]: < 0.0115 µM
TGI [38]: > 100 µM
GI50 [39]: 3.98 µM
TGI [39]: 75 µM
GI50 [40]: < 0.01 µM
TGI [40]: < 0.01 µM
GI50 [41]: < 0.01 µM
TGI [41]: > 93 µM
GI50 [42]: < 0.01 µM
TGI [42]: > 100 µM
GI50 [43]: < 0.01 µM
TGI [43]: > 100 µM
GI50 [44]: < 0.01 µM
TGI [44]: 79 µM
GI50 [45]: < 0.01 µM
TGI [45]: 34.6 µM
GI50 [46]: < 0.01 µM
TGI [46]: > 100 µM
GI50 [47]: < 0.01 µM
TGI [47]: 21.3 µM
GI50 [48]: 18.7 µM
TGI [48]: > 100 µM
GI50 [49]: < 0.01 µM
TGI [49]: > 96.2 µM
GI50 [50]: < 0.01 µM
TGI [50]: 22.4 µM
GI50 [51]: < 0.01 µM
TGI [51]: > 100 µM
GI50 [52]: < 0.01 µM
TGI [52]: > 100 µM
GI50 [53]: < 0.01 µM
TGI [53]: 36.1 µM
GI50 [54]: < 0.01 µM
TGI [54]: < 0.01 µM
GI50 [55]: < 0.01 µM
TGI [55]: 15.2 µM
GI50 [56]: < 0.01 µM
TGI [56]: > 51.6 µM
GI50 [57]: < 0.01 µM
TGI [57]: < 0.01 µM
GI50 [58]: < 0.01 µM
